“And” between values parts separate entries of the source, which are not always exact repeats. Equal values may be shown once.
Tested on: Huh-7 cells
Assay: Metabolic disposition of [^14C]-Compound 1 and [^14C]-2′-C-methyl guanosine in Huh-7 cells (incubation medium, cellular extracts, nucleotide levels)
Type: in vitro ADME, human
Conditions: for Major metabolites observed in cellular extracts (% of total radioactivity) / 2′-C-methyl guanosine nucleotide levels in cellular extracts: Huh7; for % Residual [^14C]-Compound 1 in incubation medium / metabolites observed in medium (% of total radioactivity): Huh7 cells (n=2); for % Residual [^14C]-Compound 1 in incubation medium: 10 μM
Protocol: Huh-7 cells: Confluent monolayers of Huh-7 cells were dispersed using trypsin-EDTA, rinsed and pelleted by centrifugation at 1,000 rpm (Beckman, Model Allegra 6R). Cells were resuspended at 0.2, 0.3 and 0.4×10^6 cells/mL of medium (DMEM supplemented with 1% pyruvate, 10% FBS, 0.5% penicillin-streptomycin, 1% L-glutamine, 1% non-essential amino acids and 22 mM HEPES). Multi-well collagen I-coated plates (rat tail collagen type I; 6-well) were then seeded by addition of 2.0 mL of cell suspension to achieve final cell density of 0.4, 0.6 and 0.8×10^6 cells/well and placed in an incubator at 37° C. overnight to allow cells to attach and acclimatize to culture and the medium. Duplicate plates were prepared with the same cell density for cell number determination at each time point.
Huh-7 incubations were conducted in a final volume of 2.0 mL Huh7 culture medium/well ([…]). Culture medium from overnight incubation of cells was removed and replaced with fresh culture medium, pre-warmed to 37° C. containing [^14C]-Compound 1 or [^14C]-2′-C-methyl guanosine as described above for primary hepatocytes. After 24, 48 and 72 hours, 0.5-1.0 mL of incubation medium was removed and stored at −20° C. until analysis (described below). The remaining medium was discarded and cell monolayers processed and extracted as described above.
Preliminary identification of putative metabolites was conducted by comparing the retention time of observed metabolites in incubation medium and cellular extracts with retention times obtained with chemically synthesized standards using the chromatography conditions described below. Further identification of 2′-C-methyl guanosine nucleotides (mono-, di- and triphosphate) was carried out by incubating cellular extract samples with alkaline phosphatase (10 units for 60 min at 37° C.) and comparing the HPLC retention times of the resulting nucleosides with that of authentic 2′-C-methyl guanosine.
Cellular extracts were prepared by centrifugation at 16,000 RCF using an Eppendorf microcentrifuge (Eppendorf, Model 5415D) for 10 min to remove cellular debris. An aliquot of 5-10 μL of the supernatant was added to 5 mL of EcoLite™ (MP, Irvine, Calif.) liquid scintillation cocktail and radioactivity measured by liquid scintillation counting (LSC) using a Beckman Coulter LS6500 multipurpose liquid scintillation counter (Beckman Instruments, Fullerton, Calif.). The remaining sample was then dried using a Labconco refrigerated centrivap concentrator (Labconco, Kansas City, Mo.). Dry extracts were reconstituted in 120 μL of HPLC-grade water and centrifuged at 16,000 RCF using an Eppendorf microcentrifuge for 10 min. Prior to HPLC analysis (described below), radioactivity of the concentrated extracts was measured by LSC using 5 μL aliquots. Extraction recovery was then determined by comparing total radioactivity in extracts before and after drying. The remaining extract was then analyzed by HPLC with online radioactivity detection using a Flow Scintillation Analyzer Radiomatic™ 515TR. Radioactivity in the separated components was quantified by integrating the peaks using Flo-One™ Software (Perkin Elmer Life Sciences). Samples with poor recovery (<85%) were re-analyzed when possible.
Incubation medium samples were thawed at room temperature, vortexed and centrifuged at 16,000 RCF using an Eppendorf microcentrifuge. An aliquot of 10 μL was added to 5 mL of EcoLite™ (MP, Irvine, Calif.) liquid scintillation cocktail and radioactivity measured by LSC using a Beckman Coulter LS6500 multipurpose liquid scintillation counter (Beckman Instruments, Fullerton, Calif.). Samples (50-100 μL) were then analyzed by HPLC (described below) with online radioactivity detection using a Flow Scintillation Analyzer Radiomatic™ 515TR. Radioactivity in the separated components was quantified by integrating the peaks using Flo-One™ Software (Perkin Elmer Life Sciences). Samples with poor recovery (<85%) were re-analyzed when possible. […]

[1] = 10 μM [^14C]-Compound 1, 24 h, first series
[2] = 10 μM [^14C]-Compound 1, 24 h, second series
[3] = 10 μM [^14C]-Compound 1, 48 h, first series
[4] = 10 μM [^14C]-Compound 1, 48 h, second series
[5] = 10 μM [^14C]-Compound 1, 72 h, first series
[6] = 10 μM [^14C]-Compound 1, 72 h, second series

SMILES	Major metabolites observed in cellular extracts (% of total radioactivity) [1]	Major metabolites observed in cellular extracts (% of total radioactivity) [2]	Major metabolites observed in cellular extracts (% of total radioactivity) [3]	Major metabolites observed in cellular extracts (% of total radioactivity) [4]	Major metabolites observed in cellular extracts (% of total radioactivity) [5]	Major metabolites observed in cellular extracts (% of total radioactivity) [6]	metabolites observed in medium (% of total radioactivity) (10 μM [^14C]-Compound 1, 0 h)	metabolites observed in medium (% of total radioactivity) (10 μM [^14C]-Compound 1, 24 h)	metabolites observed in medium (% of total radioactivity) (10 μM [^14C]-Compound 1, 48 h)	metabolites observed in medium (% of total radioactivity) (10 μM [^14C]-Compound 1, 72 h)	further results
CC(C)(CO)C(=O)SCCOP(=O)(NCc1ccccc1)OC[C@H]1O[C@@H](n2cnc3c(=O)[nH]c(N)nc32)[C@](C)(O)[C@@H]1O (mixture of isomers) [Compound 1, 3-hydroxy-2,2-dimethyl-thiopropionic acid S-(2-{[(2R,3R,4R,5R)-5-(2-amino-6-oxo-1,6-dihydro-purin-9-yl)-3,4-dihydroxy-4-methyl-tetrahydro-furan-2-ylmethoxy]-benzylamino-phosphoryloxy}-ethyl) ester]	40.3 % of total radioactivity	10.4 % of total radioactivity	15.8 % of total radioactivity	21.2 % of total radioactivity	14.1 % of total radioactivity	16.2 % of total radioactivity	–	–	–	–	% Residual [^14C]-Compound 1 in incubation medium (0 h): 98% and 96%; % Residual [^14C]-Compound 1 in incubation medium (24 h): 86% and 85%; % Residual [^14C]-Compound 1 in incubation medium (48 h): 76% and 77%; % Residual [^14C]-Compound 1 in incubation medium (72 h): 67% and 65% and 68%; unchanged Compound 1, % of the total radioactivity (Huh7 cells, after 72 hours incubation with [^14C]-Compound 1): 15%
C[C@@]1(O)[C@H](O)[C@@H](COP(=O)(O)NCc2ccccc2)O[C@H]1n1cnc2c(=O)[nH]c(N)nc21 [Compound 2, [(2R)-2-methyl-β-D-ribofuranosyl]guanine-N-benzylaminyl-5′-monophosphate]	–	–	–	–	–	–	1.7% and 2.9%	8.2% and 8.0%	18.3% and 17.2%	26% and 25.3% and 27.2%	–
C[C@@]1(O)[C@H](O)[C@@H](COP(=O)(O)O)O[C@H]1n1cnc2c(=O)[nH]c(N)nc21 [Compound 5, [(2R)-2-methyl-β-D-ribofuranosyl]guanine 5′-monophosphate]	BLD (BLD = below limit of detection (30 DPM))	4.81 % of total radioactivity	6.57 % of total radioactivity	5.82 % of total radioactivity	6.93 % of total radioactivity	5.74 % of total radioactivity	BLD	2.0% and 3.2%	0.8% and 1.5%	0.7% and 1.0%	2′-C-methyl guanosine nucleotide levels in cellular extracts (10 μM [^14C]-2′-C-methyl guanosine, 0 h, n = 1): 0 pmol/million cells; Major metabolites observed in cellular extracts (% of total radioactivity) (10 μM [^14C]-2′-C-methyl guanosine, 24 h): BLD^a (BLD = below limit of detection (30 DPM)); 2′-C-methyl guanosine nucleotide levels in cellular extracts (10 μM [^14C]-2′-C-methyl guanosine, 24 h, n = 1): BLD^a (BLD = below limit of detection (0.02 pmol/million cells)); Major metabolites observed in cellular extracts (% of total radioactivity) (10 μM [^14C]-2′-C-methyl guanosine, 48 h): BLD (BLD = below limit of detection (30 DPM)); 2′-C-methyl guanosine nucleotide levels in cellular extracts (10 μM [^14C]-2′-C-methyl guanosine, 48 h, n = 1): BLD (BLD = below limit of detection (0.02 pmol/million cells)); Major metabolites observed in cellular extracts (% of total radioactivity) (10 μM [^14C]-2′-C-methyl guanosine, 72 h): BLD (BLD = below limit of detection (30 DPM)); 2′-C-methyl guanosine nucleotide levels in cellular extracts (10 μM [^14C]-2′-C-methyl guanosine, 72 h, n = 1): BLD (BLD = below limit of detection (0.02 pmol/million cells)); 2′-C-methyl guanosine nucleotide levels in cellular extracts (10 μM [^14C]-Compound 1, 0 h, replicate 1 of n = 2): 0 pmol/million cells; 2′-C-methyl guanosine nucleotide levels in cellular extracts (10 μM [^14C]-Compound 1, 0 h, replicate 2 of n = 2): 0 pmol/million cells; 2′-C-methyl guanosine nucleotide levels in cellular extracts (10 μM [^14C]-Compound 1, 24 h, replicate 1 of n = 2): BLD^a (BLD = below limit of detection (0.02 pmol/million cells)); 2′-C-methyl guanosine nucleotide levels in cellular extracts (10 μM [^14C]-Compound 1, 24 h, replicate 2 of n = 2): 1.40 pmol/million cells; 2′-C-methyl guanosine nucleotide levels in cellular extracts (10 μM [^14C]-Compound 1, 48 h, replicate 1 of n = 2): 1.50 pmol/million cells; 2′-C-methyl guanosine nucleotide levels in cellular extracts (10 μM [^14C]-Compound 1, 48 h, replicate 2 of n = 2): 1.50 pmol/million cells; 2′-C-methyl guanosine nucleotide levels in cellular extracts (10 μM [^14C]-Compound 1, 72 h, replicate 1 of n = 2): 1.10 pmol/million cells; 2′-C-methyl guanosine nucleotide levels in cellular extracts (10 μM [^14C]-Compound 1, 72 h, replicate 2 of n = 2): 1.10 pmol/million cells

Source: US20100003217A1, “Compounds and Pharmaceutical Compositions for the Treatment of Viral Infections” (priority 2008, published 2010)
